Measurements taken from ChEMBL document CHEMBL1201862, “PubChem BioAssay data set” (2004).
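Where inhibition never reached the appropriate level, the endpoint shown equals the highest concentration tested. Otherwise, values were interpolated linearly from a five-concentration, 48-hour dose response in 96-well plates. GI50 marks 50% less growth.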 Active and inactive are the calls of the source. Rule as the data show it: active = GI50 up to about 1.1 µM and inactive = higher. Where a SMILES comes first, the peptide text is derived from it. The star is where a group is joined. Cbz = O=C(OCc1ccccc1)*; Boc = CC(C)(C)OC(=O)*; tBu = CC(C)(C)*

Columns and labels:
Test in all cases: growth of human tumour cells (NCI), 48 h
[1] = tested on: MDA-N
[2] = tested on: SN12C
[3] = tested on: SK-MEL-5
[4] = tested on: A498
[5] = tested on: NCI-H460
[6] = tested on: HCT-116
[7] = tested on: NCI-H226
[8] = tested on: A549
[9] = tested on: MDA-MB-435
[10] = tested on: M14
[11] = tested on: IGROV-1
[12] = tested on: HOP-62
[13] = tested on: SF-539
[14] = tested on: SK-MEL-2
[15] = tested on: CCRF-CEM
[16] = tested on: OVCAR-4
[17] = tested on: TK-10
[18] = tested on: NCI-H23

Measured: GI50

CC(OC(C)(C)C)C(NC(=O)C(CCCCNC(=O)OC(C)(C)C)NC(=O)C(Cc1c[nH]c2ccccc12)NC(=O)C(Cc1ccccc1)NC(=O)OCc1ccccc1)C(=O)NC(Cc1ccccc1)C(=O)O (centres undefined) (Cbz-FWK(Boc)T(tBu)F-OH; configuration not given here)
inactive: [1] 38.5 µM | [2] 25.8 µM | [3] 1.66 µM | [4] > 100 µM | [5] > 100 µM | [6] 36.6 µM | [7] 37.3 µM | [8] > 100 µM | [9] 40.5 µM | [10] > 100 µM | [11] 31 µM | [12] > 100 µM | [13] 31.8 µM | [14] 41.7 µM | [15] 28.1 µM | [16] 91 µM | [17] > 100 µM | [18] 61.7 µM

O[C@@]1(C#Cc2ccc3c(c2)OCO3)CCC[C@H]1NCc1ccccc1
inactive: [1] 16.9 µM | [3] 19.4 µM | [4] 28.6 µM | [5] 24.7 µM | [7] 15.9 µM | [8] 31.3 µM | [9] 21 µM | [10] 15.7 µM | [11] 14.1 µM | [12] 26.5 µM | [13] 16 µM | [14] 16.2 µM | [15] 33.8 µM | [16] 38.6 µM | [17] 27.7 µM | [18] 29.6 µM

COc1ccc(C2S/C(=C\c3cccc(O)c3)C(=O)N2NC(=O)Cc2ccccc2)cc1 (centres undefined)
inactive: [2] > 100 µM | [3] > 100 µM | [4] > 100 µM | [5] > 100 µM | [6] > 100 µM | [7] > 100 µM | [8] > 100 µM | [10] > 100 µM | [11] > 100 µM | [12] > 100 µM | [13] > 100 µM | [14] > 100 µM | [15] > 100 µM | [16] > 100 µM | [17] > 100 µM | [18] > 100 µM

N/N=C1\c2ccccc2C2/C(=N\N)c3ccccc3C12 (centres undefined)
inactive: [2] > 100 µM | [3] > 100 µM | [5] > 100 µM | [8] > 100 µM | [10] > 100 µM | [11] > 100 µM | [13] > 100 µM | [14] > 100 µM | [15] > 100 µM | [16] > 100 µM | [17] > 100 µM | [18] > 100 µM

C[C@]12CCC(=O)C[C@H]1CCC(O)[C@@H]2Br (some centres undefined)
inactive: [2] > 100 µM | [3] > 100 µM | [4] > 100 µM | [5] > 100 µM | [6] > 100 µM | [7] > 100 µM | [8] > 100 µM | [10] > 100 µM | [11] > 100 µM | [12] > 100 µM | [13] > 100 µM | [14] > 100 µM | [15] > 100 µM | [16] > 100 µM | [17] > 100 µM | [18] > 100 µM

O=C1OC(c2ccccc2)N(C(=O)c2ccccc2)C1Cc1ccc(OCc2ccccc2)cc1 (centres undefined)
inactive: [1] > 100 µM | [2] > 100 µM | [3] 43.8 µM | [4] 4.67 µM | [5] 60 µM | [6] > 100 µM | [7] > 100 µM | [8] 80.2 µM | [9] > 100 µM | [10] > 100 µM | [11] > 100 µM | [12] 9.42 µM | [13] > 100 µM | [14] 31.1 µM | [15] > 100 µM | [17] 43.9 µM | [18] 36.7 µM

COC(=O)C(=O)C(C(=O)C=C(C)C)C(=O)C(=O)Nc1ccc(Cl)cc1C (centres undefined)
inactive: [2] > 100 µM | [3] > 100 µM | [4] > 100 µM | [5] > 100 µM | [6] > 100 µM | [7] > 100 µM | [8] > 100 µM | [10] > 100 µM | [11] > 100 µM | [12] > 100 µM | [13] > 100 µM | [14] > 100 µM | [15] 87.5 µM | [16] > 100 µM | [17] > 100 µM | [18] > 100 µM

NC(N)=NCc1ccc2c(c1)OCO2
inactive: [1] > 100 µM | [3] 24 µM | [4] 28.2 µM | [5] > 100 µM | [6] 78.3 µM | [8] > 100 µM | [9] 73.1 µM | [10] > 100 µM | [11] > 100 µM | [12] > 100 µM | [13] 42.7 µM | [14] > 100 µM | [15] 94 µM | [16] > 100 µM | [17] > 100 µM | [18] 61.1 µM

CCOC(=O)C1=C(OS(=O)(=O)C(F)(F)F)CCCC1
inactive: [1] > 100 µM | [3] 83 µM | [4] > 100 µM | [5] > 100 µM | [7] > 100 µM | [8] > 100 µM | [9] > 100 µM | [10] > 100 µM | [11] > 100 µM | [12] > 100 µM | [13] > 100 µM | [14] > 100 µM | [15] > 100 µM | [16] > 100 µM | [17] > 100 µM | [18] > 100 µM

CCn1c(-c2cc3ccccc3cc2OC(C)=O)n[nH]c1=S
inactive: [3] 14.9 µM | [4] 25.8 µM | [5] 24.7 µM | [6] 18.5 µM | [7] 38.6 µM | [9] 23.3 µM | [10] 24.2 µM | [11] 39.6 µM | [12] 57.3 µM | [13] 35.6 µM | [14] 18.2 µM | [15] 1.16 µM | [16] 30 µM | [17] 27.4 µM | [18] 30.5 µM

CCCCCC[C@H]1CC(=O)C2CCCC[C@@]23CC[C@H](CCl)N13.CCCCCC[C@H]1CC(=O)C2CCCC[C@@]23C[C@H](Cl)CN13 (some centres undefined)
inactive: [2] 82 µM | [3] 17.2 µM | [4] > 100 µM | [5] 98.2 µM | [6] 51.9 µM | [8] 37 µM | [9] 57.8 µM | [10] 29.2 µM | [11] > 100 µM | [12] 91.6 µM | [13] 69.5 µM | [14] > 100 µM | [15] 33.2 µM | [16] 40.2 µM | [17] 43.9 µM | [18] 47.5 µM

Nc1nc(-c2ccco2)cc(-c2ccco2)n1
inactive: [2] > 100 µM | [3] > 100 µM | [5] > 100 µM | [6] > 100 µM | [7] 71.3 µM | [8] > 100 µM | [10] > 100 µM | [11] > 100 µM | [12] > 100 µM | [13] > 100 µM | [14] > 100 µM | [15] > 100 µM | [16] > 100 µM | [17] > 100 µM | [18] > 100 µM
